From patent US20100285959A1, “HERBICIDAL MIXTURES” (priority 2006, published 2010) come the findings set out here.

One data set relates to field violet (VIOAR). As to the kind of experiment: Test 23 growth chamber, postemergence. To be noted: 21 DAA. It is filed as in vivo, Viola arvensis. The procedure: A test was conducted to evaluate the effects on winter barley (HORVW, Hordeum vulgare L.), winter wheat (TRZAW, Triticum aestivum L.), and several weed species of mixtures of Compound 2 with the commercial herbicides (2,4-dichlorophenoxy)acetic acid (2,4-D) and (4-chloro-2-methylphenoxy)acetic acid (MCPA), auxin mimics. […] Plants were treated postemergence at the 2-4 leaf growth stage, and each treatment was replicated three times. […] Plants were watered as needed. […] Results are means of the three replicates.

For a further data set, the system named is redroot pigweed (AMARE). As to the kind of experiment: Test 6 field trial, postemergence. It is filed as in vivo, Amaranthus retroflexus. From the text:
Corn seeds (hybrid ‘Pioneer 35Y62’) were planted in mid spring season, 3.8 cm deep in a silt loam soil having 4% organic matter and a pH of 5.8. Plots were 10.7 m long by 1.5 m wide with rows spaced 76 cm apart. Seeds were spaced 18 cm apart within the rows. The field was managed using conventional tillage practices. […] All treatments included a surfactant except glufosinate treatments, both alone and in combination. […] Results are summarized in Table 6 and are the means of the three replicates.

Data set [1] relates to Pennsylvania smartweed (POLPY). Put plainly: Test 8 field trial, preemergence. The data set is classed as in vivo, Polygonum pensylvanicum. An excerpt: (§1) Corn seeds (hybrid ‘Pioneer 31G96’) were planted in mid spring season, 3.8 cm deep in a clay loam soil having 2% organic matter and a pH of 6.6. Plots were 6.1 m long by 3.0 m wide with rows spaced 76 cm apart. Seeds were spaced 15 cm apart within the rows. The field was managed using conventional tillage practices. […] A few of the weed species could not be evaluated at every timing. […] Results are the means of the three replicates.

The test system of a further data set is common ragweed (AMBEL). As to the kind of experiment: Test 10 field trial, preemergence. It is filed as in vivo, Ambrosia artemisiifolia. As to conditions: 28 DAA. An excerpt: Corn seeds (hybrid ‘Pioneer 33P65 RR’) were planted in mid spring season, 2.5 cm deep in a silt loam soil. Plots were 9.1 m long by 3.0 m wide with rows spaced 76 cm apart. The field was managed using conventional tillage practices. […] Results are the means of the three replicates.

The test system of the next data set is field pennycress (THLAR). As to the kind of experiment: Test 5 field trial, postemergence. The data set is classed as in vivo, Thlaspi arvense. From the text:
Corn seeds (hybrid ‘Pioneer 38H69’) were planted in mid spring season, 5.1 cm deep in a silty clay loam soil having 3% organic matter and a pH of 6.5. Plots were 9.1 m long by 3.0 m wide with rows spaced 76 cm apart. The field was managed using conventional tillage practices. […] All treatments included a surfactant except glufosinate treatments, both alone and in combination. […] Results are summarized in Table 5 and are the means of the three replicates.

The test system of data set [2] is common lambsquarters (CHEAL). As to the kind of experiment: Test 8 field trial, preemergence. It is filed as in vivo, Chenopodium album.
Excerpt: as §1

The next data set concerns jimsonweed (DATST). As to the kind of experiment: Test 8 field trial, preemergence. The data set is classed as in vivo, Datura stramonium.
Excerpt: as §1

The subject of the next data set is giant foxtail (SETFA). Put plainly: Test 3 field trial, emerged weeds before corn planting. As to conditions: 68 DAA; Cpd 2 100, glyphosate 1540, paraquat 1150 g a.i./ha, alone or combined. The data set is classed as in vivo, Setaria faberi. An excerpt:
Corn seeds (hybrid ‘Pioneer 33J56’) were planted in early spring season, 3.8 cm deep in a silt loam soil having 2.4% organic matter and a pH of 6. Plots were 6.1 m long by 2.7 m wide with rows spaced 91.4 cm apart. The field was managed using no-till practices. […] Compound 2 and paraquat treatments, alone and in combination, also included a surfactant. Glyphosate, alone and with Compound 2, included ammonium sulfate in the treatment mixture. […] The effects on the weeds in the treated plots and untreated control plots were recorded 30, 42, 46 and 68 days after application. Most of the weed species could not be evaluated at every timing. Corn response was not evaluated because the growth was highly variable depending on the efficacy of the weed control treatments. […] Results are the means of the three replicates.

For a further data set, the system named is corn (ZEAMD). Put plainly: Test 7 field trial, preemergence. The data set is classed as in vivo, Zea mays ssp. indentata. The protocol: Plots were 7.6 m long by 3.0 m wide with rows spaced 76 cm apart. Seeds were spaced 15 cm apart within the rows. The field was managed using conventional tillage practices. […] Wild radish was evaluated 14 and 28 days after application. […] Results are the means of the three replicates.

The next data set has as its system prickly lettuce (LACSE). Put plainly: Test 9 field trial, emerged weeds before corn planting. It is filed as in vivo, Lactuca serriola. As to conditions: g a.i./ha: Cpd 2 100, Glyphosate 1540, Paraquat 1150. The procedure: Corn seeds (hybrid ‘Pioneer 34M91 RR’) were planted in mid spring season, about 3.8 cm deep in a silty clay loam soil having a pH of 6.7. Plots were 9.1 m long by 3.0 m. The field was managed using no-till practices. […] Compound 2 and paraquat treatments, alone and in combination, also included a surfactant. Glyphosate, alone and with Compound 2, included ammonium sulfate in the treatment mixture. […] The effects on the weeds in the treated plots and untreated control plots were recorded 7, 14, 23, 30 and 57 days after application. Most of the weed species could not be evaluated at every timing. Corn response was only evaluated 57 days after application. […] Results are the means of the three replicates.

Where [3] appears, read: 29 DAA, g a.i./ha: Cpd 2 100, Atrazine 1680, S-Metolachlor 1870.
The mark [4] stands for this setting: 56 DAA, g a.i./ha: Cpd 2 100, Atrazine 1680.
The mark [5] stands for this setting: g a.i./ha: Cpd 2 100, Atrazine 1680, S-Metolachlor 1870.
Setting [6] is: 16 DAA, atrazine 1120, glufosinate 470 or glyphosate 1120 g a.i./ha alone.
[7] abbreviates: 31 DAA, atrazine 1120, glufosinate 470 or glyphosate 1120 g a.i./ha alone.
The mark [8] stands for this setting: 19 DAA, g a.i./ha: Cpd 2 100, Atrazine 1680, S-Metolachlor 1870.
Where [9] appears, read: 56 DAA, g a.i./ha: Cpd 2 100, Atrazine 1680, S-Metolachlor 1870.
Setting [10] is: 29 DAA, g a.i./ha: Cpd 2 50, S-Metolachlor 1870.
Setting [11] is: 29 DAA, g a.i./ha: Cpd 2 150, S-Metolachlor 1870.
The mark [12] stands for this setting: 19 DAA, g a.i./ha: Cpd 2 50, S-Metolachlor 1870.
[13] abbreviates: 19 DAA, g a.i./ha: Cpd 2 150, S-Metolachlor 1870.
[14] abbreviates: 56 DAA, g a.i./ha: Cpd 2 50, S-Metolachlor 1870.
Where [15] appears, read: 56 DAA, g a.i./ha: Cpd 2 150, S-Metolachlor 1870.

For the molecule `O=C(O)COc1ccc(Cl)cc1Cl` [2,4-D, (2,4-dichlorophenoxy)acetic acid], the “Postemergence VIOAR Obs” value in the data set on field violet (VIOAR) (2,4-D or MCPA alone 250 g a.i./ha) was found to be 63.

For the molecule `CCNc1nc(Cl)nc(NC(C)C)n1` [Atrazine, atrazine, reference compound], the “AMARE Obs” value worked out at 100% with redroot pigweed (AMARE) (14 DAA, 1120 g a.i./ha) and 100% in the data set with redroot pigweed (AMARE) (28 DAA, 1120 g a.i./ha). Moreover, the “POLPY Obs” value in data set [1] (setting [3]) and in data set [1] (setting [4]) was 100% each time. In addition, in the data set on common ragweed (AMBEL) (setting [5]), the “AMBEL Obs” value is reported as 95%. For the same molecule, the “THLAR Obs” value with field pennycress (THLAR) (setting [6]) worked out at 95%; with field pennycress (THLAR) (setting [7]), 100%. For the same molecule, the “CHEAL Obs” value in data set [2] (setting [8]) and in [2] (setting [9]) was 100% throughout. The entries for the “DATST Obs” value with jimsonweed (DATST) (setting [8]), with jimsonweed (DATST) (setting [3]) and with jimsonweed (DATST) (setting [9]) were 53%, 100% and 100%, respectively.

For the molecule `COC(=O)c1nc(C2CC2)nc(N)c1Cl` [Compound 2, methyl 6-amino-5-chloro-2-cyclopropyl-4-pyrimidinecarboxylate], the “SETFA Obs” value in the data set on giant foxtail (SETFA) is recorded as 40%. Also, the “AMARE Obs” value in the data set on redroot pigweed (AMARE) (14 DAA, 30 g a.i./ha) is given as 100%; with redroot pigweed (AMARE) (14 DAA, 60 g a.i./ha), 98%; with redroot pigweed (AMARE) (28 DAA, 30 g a.i./ha), 100%; in the data set with redroot pigweed (AMARE) (28 DAA, 60 g a.i./ha), 98%. Further, the “POLPY Obs” value is recorded as 28% in data set [1] (19 DAA, g a.i./ha: Cpd 2 50); 60% in data set [1] (19 DAA, g a.i./ha: Cpd 2 100); 65% in [1] (19 DAA, g a.i./ha: Cpd 2 150); 30% in [1] (setting [10]); 50% in [1] (setting [3]); 70% in [1] (setting [11]). Besides, the “POLPY Obs” value in [1] (56 DAA, g a.i./ha: Cpd 2 50) was found to be 55%; in data set [1] (setting [4]), 75%; in data set [1] (56 DAA, g a.i./ha: Cpd 2 150), 95%. The “AMBEL Obs” value in the data set on common ragweed (AMBEL) (g a.i./ha: Cpd 2 50, S-Metolachlor 1870) came to 5%; in the data set with common ragweed (AMBEL) (setting [5]), 5%; in the data set on common ragweed (AMBEL) (g a.i./ha: Cpd 2 150, S-Metolachlor 1870), 20%. Besides, the “THLAR Obs” value was determined as 37% with field pennycress (THLAR) (16 DAA, Cpd 2 30 g a.i./ha alone or with glufosinate 470 or glyphosate 1120); 42% in the data set with field pennycress (THLAR) (16 DAA, Cpd 2 60 g a.i./ha alone or with atrazine 1120, glufosinate 470 or glyphosate 1120); 0% with field pennycress (THLAR) (31 DAA, Cpd 2 30 g a.i./ha alone or with glufosinate 470 or glyphosate 1120); 2% in the data set with field pennycress (THLAR) (31 DAA, Cpd 2 60 g a.i./ha alone or with atrazine 1120, glufosinate 470 or glyphosate 1120). For the same molecule, the “CHEAL Obs” value in data set [2] (setting [12]) turned out to be 75%; in [2] (setting [8]), 100%; in data set [2] (setting [13]), 100%; in data set [2] (setting [14]), 68%; in data set [2] (setting [9]) it was 100%; in [2] (setting [15]) it was 100%. Also, the “DATST Obs” value in the data set with jimsonweed (DATST) (setting [12]) came out at 33%; in the data set on jimsonweed (DATST) (setting [8]), 52%; in the data set on jimsonweed (DATST) (setting [13]) it was 65%; with jimsonweed (DATST) (setting [10]) it was 45%; in the data set on jimsonweed (DATST) (setting [3]), 63%; in the data set on jimsonweed (DATST) (setting [11]), 85%. For the same molecule, the results for the “DATST Obs” value with jimsonweed (DATST) (setting [14]), in the data set with jimsonweed (DATST) (setting [9]) and in the data set with jimsonweed (DATST) (setting [15]) were 65%, 90% and 100%, respectively. For the same molecule, the “ZEAMD Obs” value in the data set with corn (ZEAMD) (hybrid Pioneer 36B10, corn (Zea mays ssp. indentata), in vivo, 62 days after application) was 0%. Moreover, the “LACSE Obs” value with prickly lettuce (LACSE) (7 DAA) stood at 58%; in the data set with prickly lettuce (LACSE) (14 DAA) it was 63%; with prickly lettuce (LACSE) (23 DAA) it was 70%; in the data set on prickly lettuce (LACSE) (30 DAA) it was 88%; in the data set with prickly lettuce (LACSE) (57 DAA) it was 98%. The “Postemergence VIOAR Obs” value was found to be 60 in the data set on field violet (VIOAR) (Cpd 2 alone 4 g a.i./ha), 63 in the data set on field violet (VIOAR) (Cpd 2 alone 8 g a.i./ha) and 72 with field violet (VIOAR) (Cpd 2 alone 16 g a.i./ha).

Regarding `O=C(O)CNCP(=O)(O)O` [Glyphosate], the “SETFA Obs” value in the data set on giant foxtail (SETFA) was 0%. Also, the “AMARE Obs” value is on record as 100% in the data set on redroot pigweed (AMARE) (14 DAA, 1120 g a.i./ha) and 100% in the data set with redroot pigweed (AMARE) (28 DAA, 1120 g a.i./ha). In addition, the “THLAR Obs” value in the data set on field pennycress (THLAR) (setting [6]) is reported as 98%; in the data set with field pennycress (THLAR) (setting [7]), 100%. Further, the “LACSE Obs” value is given as 45% in the data set on prickly lettuce (LACSE) (7 DAA); 87% with prickly lettuce (LACSE) (14 DAA); 99% with prickly lettuce (LACSE) (23 DAA); 100% in the data set on prickly lettuce (LACSE) (30 DAA); 100% with prickly lettuce (LACSE) (57 DAA).

As to `CCc1cccc(C)c1N(C(=O)CCl)[C@@H](C)COC` [S-Metolachlor, S-metolachlor, reference compound], the “POLPY Obs” value in data set [1] (setting [3]) stood at 100%. Besides, the “AMBEL Obs” value in the data set with common ragweed (AMBEL) (setting [5]) came to 20%. Further, the results for the “CHEAL Obs” value in data set [2] (setting [8]) and in [2] (setting [9]) were 45% and 23%, respectively. Besides, the “DATST Obs” value in the data set on jimsonweed (DATST) (setting [8]) came to 40%; in the data set on jimsonweed (DATST) (setting [3]), 38%; in the data set with jimsonweed (DATST) (setting [9]) it was 52%. Moreover, the “ZEAMD Obs” value with corn (ZEAMD) (14 DAA, 1000 g a.i./ha) is given as 10%; with corn (ZEAMD) (28 DAA, 1000 g a.i./ha), 8%; in the data set with corn (ZEAMD) (62 DAA, 1000 g a.i./ha) it was 0%.
